The source of these data is patent US8029831B2, “Formulations containing thymoquinone for urinary health” (Bionexus, Ltd., priority 2008, dated 2011).

SMILES strings stand for the structures. In brackets after ≈: the same amount, converted by molar mass. Where two headings read alike, the source gives them in different places. Some results are limits rather than exact numbers.

Test [1] concerns iNOS biosynthesis of NO in C2C12 myocytes. Briefly: Inhibition of LTI (LPS/TNFα/IFγ)-stimulated iNOS biosynthesis of NO in C2C12 myocytes. Type of test: cell-based, murine. As to conditions: Mus musculus.
From the text: The Model—The C2C12 murine myocyte model was used in this Example. This model was selected to serve as the surrogate for muscle cells of the bladder that are exposed to the inflammatory stimuli of the invading bacteria, modeled by lipopolysaccharide (LPS), as well as the counter-inflammatory responses of the bladder infiltrating macrophage, modeled by interferon gamma (IFγ) and tumor necrosis factor alpha (TNFα). […] A significant increase in baseline NO production in cats with feline interstitial cystitis compared with that in healthy cats has been found in smooth muscle and mucosal strips.
(§1) Cell culture and treatment—Mouse C2C12 myoblasts (American Type Culture Collection, Manassas, Va.) were maintained in Dulbecco's modified Eagle's medium (DMEM) supplemented with 10% fetal calf serum (FCS), 50 units/ml penicillin and 50 μg/ml streptomycin. As cells reached confluence, the medium was switched to the differentiation medium containing DMEM and 2% horse serum. Medium was changed every other day. After 4 additional days, the differentiated C2C12 cells had fused into myotubes, which were then treated in serum-free DMEM with either vehicle alone (0.1% DMSO), or 50, 10, 5, or 1 μg thymoquinone/mL for 1 hour and then stimulated with a cytokine mixture containing 1 μg LPS/mL, 50 ng TNFα/mL and 100 U IFγ/mL (LTI) for 20 hours. At the end of the treatment period, media were sampled for determination of NO.
Nitric oxide determination—NBD methylhydrazine (NBDM, N-methyl-4-hydrazino-7-nitrobenzofurazan) was used to detect N-methyl-4-amino-7-nitrobenzofuazan, the fluorescent product of the NBDM reagent with nitrite (Buldt A, Karst U. Determination of nitrite in waters by microplate fluorescence spectroscopy and HPLC with fluorescence detection. Anal Chem. Aug. 1, 1999; 71(15):3003-3007). In a separate, black-walled, 96-well, microtiter plate, a 7 μL aliquot of a 4.8×10^−4 mol NBDM/L solution was added to 200 μL of the supernatant media followed by the addition of 15 μL of concentrated phosphoric acid. After a reaction time of 30 minutes at ambient temperature, the fluorescence was read with 485 nm excitation filter and a 530 nm emission filter in a Packard Fluorocount spectrofluorometer (Model#BF10000, Meridan, Conn.). Fluoresence was linear in the range of 3.59×10^−7 to 1.44×10^−5 mol nitrite/L. The standard deviation was 3.5 percent for 1.44×10^−6 mol nitrite/L. Experiments were performed a minimum of three times with eight replicates per dose, capturing the median inhibitory concentration (IC50) when possible.
Calculations—The median inhibitory concentrations (IC50) and 95% confidence interval were calculated using CalcuSyn (BIOSOFT, Ferguson, Mo.). This statistical package performs multiple drug dose-effect calculations using the Median Effect methods described by Chou and Talalay [Chou T C, Talalay P. Quantitative analysis of dose-effect relationships: the combined effects of multiple drugs or enzyme inhibitors. Adv Enzyme Regul. 1984; 22:27-55].
The Model—The C2C12 murine myocyte model as described in Example 1 was used.
as §1, with “units/mL” for “units/ml”, “μg/mL of the thymoquinone test formulation” for “μg thymoquinone/mL”, “IFγ/mL” for “IFγ/mL (LTI)”, “NO. […]” for “NO.”

The conditions of test [2]: 1500 to 3000 mg/day in humans, 19 subjects, reduced from 7.5; Jarrar 1996; cited from earlier work.
The subject of test [3] is NO production in LPS-stimulated macrophages. Particulars: single stimulating agent, El-Mahmoudy 2002; cited from earlier work.
The mark [4] stands for this setting: pure compounds from Sigma, LTI-stimulated C2C12 myocytes as in Example 1, read-out: median inhibitory concentration.

Turning to `Cc1ccc(C(C)C)cc1` [cymene], in test [1] (setting [4]), the IC50 is ≥ 10 µg/mL.
Regarding `Cc1ccc(C(C)C)c(O)c1` [thymol], the IC50 in test [1] (setting [4]) is ≥ 10 µg/mL.
Take `CSCC[C@H](N)C(=O)O` [Methionine]: in test [2], the “mean pH values of the urine after treatment” value is 5.5.
Regarding `CC1=CC(=O)C(C(C)C)=CC1=O` [thymoquinone], the IC50 in test [1] (C2C12 myotubes, 1 h pre-treatment, then LPS/TNFα/IFγ mixture for 20 h, 95% confidence interval 1.1 to 2.3 μg/mL, read-out: median inhibitory concentration of iNOS-mediated NO production) was 1.6 µg/mL (≈ 9.74 µM); in test [1] (LTI-stimulated C2C12 myocytes, adjusted for thymoquinone content, brackets = 95% confidence interval, read-out: Adjusted iNOS (IC50)), 1.6 µg/mL (≈ 9.74 µM). For the same molecule, the “IC50 inhibiting NO production” value in test [3] is 1.4 to 2.8 µg/mL.
For `Cc1ccc(C(C)C)cc1O` [carvacrol], in test [1] (C2C12, read-out: median inhibitory concentration), the IC50 is ≥ 10 µg/mL.
`CC=Cc1ccc(OC)cc1` [anethole]: the IC50 in test [1] (setting [4]) is ≥ 10 µg/mL.
